# Article PMC10734772 (Turkish Journal of Chemistry, 2021)
# Columns and labels:
# Format in all cases: cell-based
# [1] = tested on: K562, Nalm-6, Molt-4, Reh, Jurkat, Hek293T cell lines; experiment: MTT assay, overall judgement over all cell lines; settings: overall judgement in words; for 6 and 10: on all cell lines, except Reh
# Method: (§1) To evaluate in-vitro anti-cancer activity of the newly synthesized compounds, they were tested by using the MTT assay in the BCR-ABL positive leukemic cell line (K562), BCR-ABL negative leukemic cell lines (Nalm-6, Molt-4, Reh and Jurkat), and non-leukemic human embryonic kidney tissue (Hek293T) cell line. […] The viability rate of each concentration was calculated by the formula stated in material and methods, the viability rate results for each cell were presented in Table S2 and Figure S44.
# [2] = tested on: Molt-4; experiment: MTT assay, Molt-4 cells; settings: Homo sapiens, MOLT-4, 24 h, read-out: Viability rate
# Method: (§2) K562, Jurkat, Molt-4, and Nalm-6 cell lines were cultured in RPMI-1640 medium (ECM2001, Euroclone), Reh cell line was cultured in DMEM medium (LM-D1111-Biosera) Hek293T cell line was cultured in IMDM medium (AL070A - HiMedia) supplemented with 10% heat-inactivated fetal bovine serum (F7524-Merck & Co., USA,) penicillin and streptomycin (P4333-Sigma Aldrich). K562, Jurkat and Molt-4 cell lines were seeded as 4x10^5/ml, Reh and Nalm-6 cell lines were seeded 5x10^5/ml, Hek293T cell line was seed as 2x10^5/ml. All cells were incubated at 5% CO2 and 37 °C. All cell lines were kindly provided by Dr. M. Sayitoglu and Dr. Ö. Hatirnaz-Ng from Acibadem University.
# (§3) MTT assay is a 3-day test. On the first day, cell count was performed in Bio Rad TC-20 device with the help of trypan blue, each cell line was prepared by diluting to the specified concentrations and seeded in a 96-well plate as 100μL to each well and incubated for 1 day.
# (§4) Each compound was solved in DMSO, their stock solutions (33.3, 10, 5, 1 mM, and 300 μM) were prepared by diluting with the same solvent and they were stored under −20°C when they were not used.
# (§5) On the second day, stock solutions were subsequently diluted to various concentrations (0.3–200 μM) with related medium prior to experiments. Specified concentrations of the compounds were seeded in a 96-well plate as 100μL to each well and incubated for 24 h.
# (§6) After incubation (on the third day), to precipitate leukemia cells, the cell plate was centrifuged at 1500 rpm for 5 min. Then, 100 μL of supernatant was removed from each well carefully and 10 μl of MTT solution (5 mg/mL) was added to each well and incubated at 37 °C for 4 h. The 50 μl of supernatant was discarded from each well and 100 μl of DMSO was added to dissolve the formazan. Plates were shaken for 45 min to dissolve the dye. Then the optical density of each well was measured by using Thermo VarioSkan Flush Multimode Reader Quantum ST5-1100 at 570 nm wavelength.
# (§7) Subsequently, viability rate of the cells at each concentration, as percentage, was determined by following formula (1):
# (§8) Viability rate (%)=100-[(OD(control)-OD(sample))/OD(control)×100].OD=Optical Density
# (§9) The IC50 values were calculated by using GraphPad Prism. All the data presented as the mean of 6 replicates. Results were analyzed and illustrated with Graph Pad Prism (version 5; GraphPad Software, San Diego, CA, USA). Statistical analysis was performed using dose-response inhibition, log(inhibitor) vs response-variable slope, least squares (ordinary) fit.
# as §1
# [3] = tested on: Nalm-6; experiment: MTT assay, Nalm-6 cells; settings: Homo sapiens, 24 h
# [4] = tested on: K562; experiment: MTT assay, K562 cells; settings: Homo sapiens, 24 h, MTT, read-out: Viability rate
# Method: After incubation (on the third day), to precipitate leukemia cells, the cell plate was centrifuged at 1500 rpm for 5 min. […] The 50 μl of supernatant was discarded from each well and 100 μl of DMSO was added to dissolve the formazan. Plates were shaken for 45 min to dissolve the dye. Then the optical density of each well was measured by using Thermo VarioSkan Flush Multimode Reader Quantum ST5-1100 at 570 nm wavelength.
# The IC50 values were calculated by using GraphPad Prism. All the data presented as the mean of 6 replicates. […] Statistical analysis was performed using dose-response inhibition, log(inhibitor) vs response-variable slope, least squares (ordinary) fit.
# [5] = tested on: Reh; experiment: MTT assay, Reh cells; settings: Homo sapiens, 24 h, read-out: Viability rate
# Method: as §2, §3, §4, §5, §6, §7, §8, §9, §1
# [6] = MTT assay, Hek293T non-leukemic control cells; settings: human, read-out: Viability rate
# Method: as §2, §3, §4, §5, §6, §7, §8, §9, §1
# [7] = tested on: Jurkat; experiment: MTT assay, Jurkat cells; settings: Homo sapiens, 24 h, read-out: Viability rate
# Method: as §2, §3, §4, §5, §6, §7, §8, §9, §1
smiles,measurement,setting,value
COc1ccc(CN2CCN(Cc3ccc(C(=O)Nc4ccc(C)c(Nc5nccc(C)n5)c4)cc3)CC2)c(OC)c1OC [Compound 6],anticancer activity according to MTT assay results,[1],high anticancer activity
same,viability at 0.3 µM,"[2]; Molt-4, 0.3 μM",84.4 ± 0.14%
same,viability at 0.5 µM,"[2]; Molt-4, 0.5 μM",79.7 ± 0.1%
same,viability at 1 µM,"[2]; Molt-4, 1 μM",78.7 ± 0.09%
same,viability at 3 µM,"[2]; Molt-4, 3 μM",79.7 ± 0.18%
same,viability at 5 µM,"[2]; Molt-4, 5 μM",80.5 ± 0.16%
same,viability at 10 µM,"[2]; Molt-4, 10 μM",81.8 ± 0.07%
same,viability at 15 µM,"[2]; Molt-4, 15 μM",79.2 ± 0.15%
same,viability at 20 µM,"[2]; Molt-4, 20 μM",76 ± 0.05%
same,viability at 30 µM,"[2]; Molt-4, 30 μM",75.4 ± 0.08%
same,viability at 50 µM,"[2]; Molt-4, 50 μM",73.5 ± 0.04%
same,viability at 70 µM,"[2]; Molt-4, 70 μM",68.9 ± 0.06%
same,viability at 100 µM,"[2]; Molt-4, 100 μM",61.7 ± 0.02%
same,viability at 150 µM,"[2]; Molt-4, 150 μM",59.9 ± 0.05%
same,viability at 200 µM,"[2]; Molt-4, 200 μM",55.2 ± 0.04%
same,viability at 0.3 µM,"[3]; Nalm-6, 0.3 μM, MTT, read-out: Viability rate",100.7 ± 0.01%
same,viability at 0.5 µM,"[3]; Nalm-6, 0.5 μM, MTT, read-out: Viability rate",100.5 ± 0.02%
same,viability at 1 µM,"[3]; Nalm-6, 1 μM, MTT, read-out: Viability rate",100.1 ± 0.03%
same,viability at 3 µM,"[3]; Nalm-6, 3 μM, MTT, read-out: Viability rate",100 ± 0.04%
same,viability at 5 µM,"[3]; Nalm-6, 5 μM, MTT, read-out: Viability rate",98.8 ± 0.04%
same,viability at 10 µM,"[3]; Nalm-6, 10 μM, MTT, read-out: Viability rate",98 ± 0.02%
same,viability at 15 µM,"[3]; Nalm-6, 15 μM, MTT, read-out: Viability rate",95.6 ± 0.02%
same,viability at 20 µM,"[3]; Nalm-6, 20 μM, MTT, read-out: Viability rate",82.6 ± 0.02%
same,viability at 30 µM,"[3]; Nalm-6, 30 μM, MTT, read-out: Viability rate",71.6 ± 0.01%
same,viability at 50 µM,"[3]; Nalm-6, 50 μM, MTT, read-out: Viability rate",55.2 ± 0.01%
same,viability at 70 µM,"[3]; Nalm-6, 70 μM, MTT, read-out: Viability rate",43.5 ± 0.01%
same,viability at 100 µM,"[3]; Nalm-6, 100 μM, MTT, read-out: Viability rate",42.6 ± 0.01%
same,viability at 150 µM,"[3]; Nalm-6, 150 μM, MTT, read-out: Viability rate",42.9 ± 0.01%
same,viability at 200 µM,"[3]; Nalm-6, 200 μM, MTT, read-out: Viability rate",42.8%
same,IC50,"[3]; Nalm-6, MTT, range 0.3–200 μM, six replicates",48 µM
same,viability at 0.3 µM,"[4]; K562, 0.3 μM",92.5 ± 0.11%
same,viability at 0.5 µM,"[4]; K562, 0.5 μM",91.8 ± 0.06%
same,viability at 1 µM,"[4]; K562, 1 μM",91.8 ± 0.04%
same,viability at 3 µM,"[4]; K562, 3 μM",88.7 ± 0.05%
same,viability at 5 µM,"[4]; K562, 5 μM",87.6 ± 0.05%
same,viability at 10 µM,"[4]; K562, 10 μM",87.3 ± 0.11%
same,viability at 15 µM,"[4]; K562, 15 μM",87.3 ± 0.1%
same,viability at 20 µM,"[4]; K562, 20 μM",86.5 ± 0.07%
same,viability at 30 µM,"[4]; K562, 30 μM",85.5 ± 0.1%
same,viability at 50 µM,"[4]; K562, 50 μM",78.1 ± 0.1%
same,viability at 70 µM,"[4]; K562, 70 μM",68.5 ± 0.05%
same,viability at 100 µM,"[4]; K562, 100 μM",67.5 ± 0.03%
same,viability at 150 µM,"[4]; K562, 150 μM",67.3 ± 0.02%
same,viability at 200 µM,"[4]; K562, 200 μM",67.2 ± 0.03%
same,viability at 0.3 µM,[5]; 0.3 μM,109.5 ± 0.02%
same,viability at 0.5 µM,[5]; 0.5 μM,105.2 ± 0.02%
same,viability at 1 µM,[5]; 1 μM,106.8 ± 0.01%
same,viability at 3 µM,[5]; 3 μM,107.9 ± 0.02%
same,viability at 5 µM,[5]; 5 μM,108.2 ± 0.01%
same,viability at 10 µM,[5]; 10 μM,106.9 ± 0.02%
same,viability at 15 µM,[5]; 15 μM,106.5 ± 0.02%
same,viability at 20 µM,[5]; 20 μM,97.7 ± 0.02%
same,viability at 30 µM,[5]; 30 μM,88.6 ± 0.03%
same,viability at 50 µM,[5]; 50 μM,85.6 ± 0.02%
same,viability at 70 µM,[5]; 70 μM,65.3 ± 0.02%
same,viability at 100 µM,[5]; 100 μM,62.2 ± 0.01%
same,viability at 150 µM,[5]; 150 μM,61.3 ± 0.01%
same,viability at 200 µM,[5]; 200 μM,61.1 ± 0.02%
same,"viability at 24 h, 0.3 µM","[6]; Hek293T cells (non-leukemic control cell line), 0.3 μM",91.1 ± 0.15%
same,"viability at 24 h, 0.5 µM","[6]; Hek293T cells (non-leukemic control cell line), 0.5 μM",90.8 ± 0.14%
same,"viability at 24 h, 3 µM","[6]; Hek293T cells (non-leukemic control cell line), 3 μM",81.4 ± 0.09%
same,"viability at 24 h, 5 µM","[6]; Hek293T cells (non-leukemic control cell line), 5 μM",78.5 ± 0.14%
same,"viability at 24 h, 10 µM","[6]; Hek293T cells (non-leukemic control cell line), 10 μM",78.2 ± 0.02%
same,"viability at 24 h, 15 µM","[6]; Hek293T cells (non-leukemic control cell line), 15 μM",70.6 ± 0.04%
same,"viability at 24 h, 20 µM","[6]; Hek293T cells (non-leukemic control cell line), 20 μM",65.5 ± 0.1%
same,"viability at 24 h, 30 µM","[6]; Hek293T cells (non-leukemic control cell line), 30 μM",57.4 ± 0.09%
same,"viability at 24 h, 50 µM","[6]; Hek293T cells (non-leukemic control cell line), 50 μM",50.7 ± 0.05%
same,"viability at 24 h, 70 µM","[6]; Hek293T cells (non-leukemic control cell line), 70 μM",48.8 ± 0.02%
same,"viability at 24 h, 100 µM","[6]; Hek293T cells (non-leukemic control cell line), 100 μM",47.9 ± 0.01%
same,"viability at 24 h, 150 µM","[6]; Hek293T cells (non-leukemic control cell line), 150 μM",47.7 ± 0.02%
same,"viability at 24 h, 200 µM","[6]; Hek293T cells (non-leukemic control cell line), 200 μM",47 ± 0.02%
same,"viability at 24 h, 1 µM","[6]; Hek293T cells, 1 μM",87 ± 0.15%
same,viability at 3 µM,[7]; 3 μM,79.1 ± 0.02%
same,viability at 5 µM,[7]; 5 μM,69.8 ± 0.02%
same,viability at 10 µM,[7]; 10 μM,69.7 ± 0.05%
same,viability at 15 µM,[7]; 15 μM,69.2 ± 0.02%
same,viability at 20 µM,[7]; 20 μM,68.9 ± 0.01%
same,viability at 30 µM,[7]; 30 μM,68.8 ± 0.03%
same,viability at 50 µM,[7]; 50 μM,59.1 ± 0.03%
same,viability at 70 µM,[7]; 70 μM,47.8 ± 0.01%
same,viability at 100 µM,[7]; 100 μM,44 ± 0.01%
same,viability at 150 µM,[7]; 150 μM,36.4 ± 0.01%
same,viability at 200 µM,[7]; 200 μM,35.3 ± 0.01%
